Data reported in patent US20230381142A1, “ANTILEISHMANIAL COMPOUNDS, COMPOSITIONS AND USE THEREOF” (TRUSTEES OF BOSTON UNIVERSITY, priority 2022, published 2023).
Values after ≈ are worked out from the molar mass of the structure shown.

Columns and labels:
[1] = Artificial membrane permeability (AMP); format: in vitro ADME; details: PAMPA, pH 7.4
Experimental: Passive permeability of compounds via rate of permeation through an artificial phospholipid membrane at pH 7.4 was measured in a high-throughput format, in duplicate. A solution of 1.8% phosphatidylcholine in 1% decane was added to a 96-well Millicell filter plate along with 250 μL of 50 mM phosphate buffer, pH 7.4 on the donor side, and 100 μL of the same buffer solution on the receiver side. The assay plate was shaken for 45 minutes before adding test compounds. Test compounds were then added to the filter plate and then incubated at room temperature with shaking for three hours. The donor and receiver solutions were next transferred to a 384-well plate for analysis by LC/MS.

HepG2 cells = assay: HepG2 cytotoxicity; format: cell-based; details: Homo sapiens; toxicity against HepG2 cells
Experimental: Given the literature precedents described above and the apparent narrow tolerance for R^3 substitutions observed in the primary screen compounds, a thorough and methodical assessment was undertaken of tolerated groups at the three points of diversity (R^1/R^2/R^3) for the core. At this stage of the project, all analogues were assessed using a battery of assays performed in-house at GlaxoSmithKline. For antileishmanial activity, GSK's inMac assay was utilized. This assay provides two readouts of compound potency: average number of intracellular amastigotes per infected cell (AMMAC) EC50, percentage of infected cells per well (INFCELL) EC50, as well as a toxicity output derived from the number of host cells (MAC EC50). In addition, compounds were assessed for toxicity against HepG2 cells (HEPG2 EC50). Here, AMMAC EC50 values were focused on for relative potency assessments. […] It should be noted that for all compounds assessed in this project, the measured toxicity against THP-1 macrophages either equaled or exceeded that of HepG2 hepatocytes, therefore the MAC SI is used here as the more conservative estimate of therapeutic index.

host THP-1 macrophages = assay: GSK inMac assay, host cell toxicity readout (LD MAC); format: cell-based, human; details: Homo sapiens, THP-1, cytotoxicity against host THP-1 macrophages
Method in brief: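 Intramacrophage L. donovani assay in THP-1 macrophages; host toxicity taken from host cell number per well, giving MAC EC50. Run alongside amastigote-per-cell and infected-cell readouts in the same wells.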

[2] = Kinetic aqueous solubility by CLND; format: physicochemical; details: kinetic from dmso stock, high-throughput CLND
Experimental: Solubility of compounds using ChemiLuminescent Nitrogen Detection (CLND) was measured as described. Solubility of compounds using Charged Aerosol Detection (CAD) was measured as described. Solubility of solid compounds in Fasted Simulated Intestinal Fluid (FaSSIF) was measured as described.

[3] = system: L. donovani intracellular amastigotes infecting THP-1 macrophages; assay: GSK intramacrophage L. donovani assay (LD AMMAC, inMac; Assay Conditions C); format: cell-based; details: Leishmania donovani; growth inhibition of L. donovani intracellular amastigotes infecting THP-1 macrophages; read-out: LD AMMAC EC50
Method in brief: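 L. donovani amastigotes within THP-1 macrophages; EC50 based on average intracellular amastigotes per infected cell (AMMAC). Infected-cell percentage (INFCELL) and host-cell number (MAC) also read, the latter as toxicity output.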

[4] = Property forecast index (PFI = ChromLogD7.4 + aromatic rings); format: physicochemical
Experimental: At the outset of the project, compound 1 was evaluated against GSK's established criteria for antileishmanial compound advancement (Table 2). Some of these assessments were performed on racemic 1, while chiral separation was also pursued of the 1 racemate to determine the active enantiomer. […] Based on this promising profile, it progressed into medicinal chemistry optimization to better understand structure-activity relationships (SAR) toward improved potency, as well as structure-property relationships (SPR) with an eye toward reducing PFI and plasma protein binding.

human serum albumin = human serum albumin (Homo sapiens, UniProt P02768); assay: Human serum albumin (HSA) binding, chromatographic; format: in vitro ADME
Sequence of human serum albumin (P02768 25-609): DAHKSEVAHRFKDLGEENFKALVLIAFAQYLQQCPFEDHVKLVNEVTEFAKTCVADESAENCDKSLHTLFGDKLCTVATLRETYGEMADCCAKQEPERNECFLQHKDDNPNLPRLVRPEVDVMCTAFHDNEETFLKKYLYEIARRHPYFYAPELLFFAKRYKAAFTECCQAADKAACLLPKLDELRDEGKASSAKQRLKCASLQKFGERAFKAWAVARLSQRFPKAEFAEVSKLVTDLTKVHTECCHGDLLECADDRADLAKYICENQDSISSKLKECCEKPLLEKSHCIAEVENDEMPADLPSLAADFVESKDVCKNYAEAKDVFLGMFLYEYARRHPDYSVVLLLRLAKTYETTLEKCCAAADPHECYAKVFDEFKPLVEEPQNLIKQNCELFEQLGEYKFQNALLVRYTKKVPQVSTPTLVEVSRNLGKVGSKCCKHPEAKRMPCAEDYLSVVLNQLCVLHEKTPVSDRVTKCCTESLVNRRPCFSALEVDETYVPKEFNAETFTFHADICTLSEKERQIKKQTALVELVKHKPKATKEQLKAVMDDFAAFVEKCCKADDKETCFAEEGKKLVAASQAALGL
Experimental: The percentage of compound bound to human serum albumin was measured using a chromatographic method as described. Briefly, each compound was assayed on an immobilized HSA column and gradient retention times measured, with chromatographic peak detection by UV. Each retention time was then converted to a % HSA bound value using a calibration set of compounds with a known % HSA binding.

[5] = aqueous medium (not further specified)
[6] = aqueous (not further specified)

Row | Papp at 3 h [1] [×10⁻⁶ cm/s] | solubility [2, 5] [µM] | EC50 [3] [µM] | PFI [4] | HSA Binding (human serum albumin) [%] | solubility [2] [µM] | solubility ([2]; aqueous medium) [µM] | solubility [2, 6] [µM] | SMILES | EC50 (HepG2 cells) [µM] | EC50 (host THP-1 macrophages) [µM]
1 | 55 | 45 (≈ 17.7 µg/mL) | 12.6 | 9.0 | 98.2 | – | – | – | COc1ccc(CN2C(=O)c3[nH]nc(CC(C)C)c3C2c2ccc(F)cc2)cc1 (stereo not shown) [Compound 34] | 50.1 | 31.6
2 | < 0.3 | – | 2.5 | 8.1 | 96.3 | – | – | – | CC(C)Cc1n[nH]c2c1C(c1ccc(F)cc1)N(c1ccc(-n3ccnc3)cc1)C2=O (stereo not shown) [Compound 28] | > 100 | > 50
3 | < 1 | ≥ 351 | > 50 | 4.8 | 77.5 | – | – | – | CC(C)Cc1n[nH]c2c1C(c1ccc(F)cc1)N(CC1CCN(C)C1)C2=O (stereo not shown) [Compound 40] | > 100 | > 50
4 | 17 | – | 20 | 8.5 | 96.2 | – | 138 (≈ 56.5 µg/mL) | – | COc1ccc(N2C(=O)c3[nH]nc(CC(C)C)c3C2c2ccc(F)cc2)c(OC)c1 (stereo not shown) [Compound 43] | 63.1 | 31.6
5 | 25 | – | 1.6 | 8.9 | 97.5 | – | – | 38 (≈ 15 µg/mL) | CCOc1ccc(N2C(=O)c3[nH]nc(CC(C)C)c3C2c2ccc(F)cc2)cc1 (stereo not shown) [Compound 19] | 50.1 | 20
6 | 13 | – | 10 | 10.5 | 97.9 | – | – | < 1 | CC(C)Cc1n[nH]c2c1C(c1ccc(F)cc1)N(c1ccc(C(C)(C)C)cc1)C2=O (stereo not shown) [Compound 25] | 50.1 | > 50
7 | 13 | ≥ 446 | 25.1 | 4.6 | 81.1 | – | – | – | CC(C)Cc1n[nH]c2c1C(c1ccc(F)cc1)N(C1CCC(N(C)C)CC1)C2=O (stereo not shown) [Compound 37] | > 100 | > 50
8 | 26 | 194 (≈ 73.8 µg/mL) | 10 | 8.0 | 95.5 | – | – | – | COc1ccc(N2C(=O)c3[nH]nc(CC(C)C)c3C2c2ccc(F)cc2)cn1 (stereo not shown) [Compound 31] | > 100 | > 50
9 | 52 | ≥ 421 | > 50 | 6.7 | 90.2 | – | – | – | COCCN1C(=O)c2[nH]nc(CC(C)C)c2C1c1ccc(F)cc1 (stereo not shown) [Compound 41] | > 100 | > 50
10 | 29 | – | 3.2 | 9.8 | 98.1 | – | – | 5 (≈ 2.17 µg/mL) | CC(C)Cc1n[nH]c2c1C(c1ccc(F)cc1)N(c1ccc(OC(F)(F)F)cc1)C2=O (stereo not shown) [Compound 20] | 25.1 | 7.9
11 | 20 | 219 (≈ 76.7 µg/mL) | 20 | 8.5 | 96.6 | – | – | – | CC(C)Cc1n[nH]c2c1C(c1ccc(F)cc1)N(c1ccccn1)C2=O (stereo not shown) [Compound 33] | > 100 | > 50

Second part, the compound before the results:

Row | SMILES | Papp at 3 h [1] [×10⁻⁶ cm/s] | solubility [2, 5] [µM] | EC50 [3] [µM] | PFI [4] | HSA Binding (human serum albumin) [%] | solubility [2] [µM] | solubility ([2]; aqueous medium) [µM] | solubility [2, 6] [µM] | EC50 (HepG2 cells) [µM] | EC50 (host THP-1 macrophages) [µM]
12 | COc1ccc(N2C(=O)c3[nH]nc(CC(C)(C)C)c3C2c2ccc(F)cc2)cc1 (stereo not shown) [Compound 10] | 17 | – | 2.5 | 9.0 | 97.4 | 36 (≈ 14.2 µg/mL) | – | – | 39.8 | 25.1
13 | COc1ccc(N2C(=O)c3[nH]nc(CC(C)C)c3C2c2cncs2)cc1 (stereo not shown) [Compound S4] | 32 | ≥ 534 | 15.8 | 6.5 | 89.3 | – | – | – | > 100 | > 50
14 | COc1ccc(N2C(=O)c3[nH]nc(CC(C)C)c3C2c2ccccn2)cc1 (stereo not shown) [Compound S7] | 42 | ≥ 450 | 31.6 | 7.1 | 86.8 | – | – | – | > 100 | > 50
15 | COc1ccc(N2C(=O)c3[nH]nc(CC(C)C)c3C2c2ccnnc2)cc1 (stereo not shown) [Compound S9] | 5 | ≥ 340 | > 50 | 5.5 | 70.5 | – | – | – | > 100 | > 50
16 | COc1ccc(N2C(=O)c3[nH]nc(-c4ccc(CC(C)C)cc4)c3C2c2ccc(F)cc2)cc1 (stereo not shown) [Compound 17] | 34 | – | 4 | 11.4 | 98.0 | < 1 | – | – | 15.8 | 7.9
17 | COc1ccc(N2C(=O)c3[nH]nc(CC(C)C)c3C2c2ccc(Br)cc2)cc1 (stereo not shown) [Compound 48] | 42 | 9 (≈ 3.96 µg/mL) | 6.3 | 9.3 | 97.2 | – | – | – | 50.1 | 15.8
18 | COc1ccc(N2C(=O)c3[nH]nc(CC(C)C)c3C2c2cccs2)cc1 (stereo not shown) [Compound S2] | 30 | 8 (≈ 2.94 µg/mL) | 7.9 | 8.2 | 95.9 | – | – | – | > 100 | > 50
19 | COc1ccc(N2C(=O)c3[nH]nc(CC(C)C)c3C2c2ccncn2)cc1 (stereo not shown) [Compound S8] | 34 | 273 (≈ 99.2 µg/mL) | > 50 | 6.3 | 76.8 | – | – | – | > 100 | > 50
20 | COc1ccc(N2C(=O)c3[nH]nc(CC(C)C)c3C2c2ccc(OC)nc2)cc1 (stereo not shown) [Compound S12] | 44 | 272 (≈ 107 µg/mL) | > 50 | 7.5 | 92.6 | – | – | – | > 100 | > 50
21 | COc1ccc(N2C(=O)c3[nH]nc(CC(C)C)c3C2c2c(Cl)cccc2Cl)cc1 (stereo not shown) [Compound 66] | 33 | 6 (≈ 2.58 µg/mL) | 1 | 9.1 | 97.1 | – | – | – | 6.3 | 2.5
22 | COc1ccc(N2C(=O)c3[nH]nc(CC(C)C)c3C2c2ccc(Cl)cc2)cc1 (stereo not shown) [Compound 47] | 33 | 22 (≈ 8.71 µg/mL) | 4 | 9.2 | 96.9 | – | – | – | 50.1 | 15.8
23 | COc1ccc(N2C(=O)c3[nH]nc(CCc4ccccc4)c3C2c2ccc(F)cc2)cc1 (stereo not shown) [Compound 15] | 36 | – | 6.3 | 9.7 | 98.0 | 6 (≈ 2.56 µg/mL) | – | – | 50.1 | 25.1
24 | COc1ccc(N2C(=O)c3[nH]nc(CC(C)C)c3C2c2cccc(F)c2)cc1 (stereo not shown) [Compound 58] | 37 | 91 (≈ 34.5 µg/mL) | 5 | 8.3 | 96.9 | – | – | – | 50.1 | 12.6
25 | C=C(C)CCCc1n[nH]c2c1C(c1ccc(F)cc1)N(c1ccc(OC)cc1)C2=O (stereo not shown) [Compound 14] | 27 | – | 6.3 | 8.9 | 97.9 | 17 (≈ 6.89 µg/mL) | – | – | 50.1 | 20
26 | COc1ccc(N2C(=O)c3[nH]nc(CC(C)C)c3C2c2ccc(C(F)(F)F)cc2)cc1 (stereo not shown) [Compound 49] | 21 | 12 (≈ 5.15 µg/mL) | 8 | 9.3 | 96.9 | – | – | – | 50.1 | 15.8
